This passage reports IC50 results from US7592336B2, “Hepatitis C virus inhibitors” (Bristol-Myers Squibb Company, priority 2005, dated 2009).

SMILES strings stand for the structures. Like-named read-outs stand apart in the source and are kept apart here.

Assay [1] deals with T1, HCV NS3/4A protease complex, BMS strain (UniProt P27958, species not given/STRAIN_BMS).
T1 construct: said of H77 and J4L6S, not expressly of BMS; fused on or other part: A three-lysine solubilising tail at the NS4A C-terminus and purification on Ni-NTA are described for the H77 and J4L6S constructs
In words: FRET peptide assay to monitor HCV NS3/4A proteolytic activity (BMS strain). In kind it is biochemical, HCV genotype 1a. The text has this:
HCV NS3 protease complexes, derived from the BMS strain, H77 strain or J4L6S strain, were generated, as described below. These purified recombinant proteins were generated for use in a homogeneous assay (see below) to provide an indication of how effective compounds of the present disclosure would be in inhibiting HCV NS3 proteolytic activity.
Serum from an HCV-infected patient was obtained from Dr. T. Wright, San Francisco Hospital. An engineered full-length cDNA (compliment deoxyribonucleic acid) template of the HCV genome (BMS strain) was constructed from DNA fragments obtained by reverse transcription-PCR (RT-PCR) of serum RNA (ribonucleic acid) and using primers selected on the basis of homology between other genotype 1a strains. From the determination of the entire genome sequence, a genotype 1a was assigned to the HCV isolate according to the classification of Simmonds et al. (See P Simmonds, K A Rose, S Graham, S W Chan, F McOmish, B C Dow, E A Follett, P L Yap and H Marsden, J. Clin. Microbiol., 31(6), 1493-1503 (1993)). […] The infectious clones, H77 (1a genotype) and J4L6S (1b genotype) were obtained from R. Purcell (NIH) and the sequences are published in Genbank (AAB67036, see Yanagi, M., Purcell, R. H., Emerson, S. U. and Bukh, J. Proc. Natl. Acad. Sci. U.S.A. 94(16), 8738-8743 (1997); AF054247, see Yanagi, M., St Claire, M., Shapiro, M., Emerson, S. U., Purcell, R. H. and Bukh, J, Virology 244 (1), 161-172. (1998)).
NS3/4A protease complex-containing fractions were pooled and loaded on a desalting column Superdex-S200 pre-equilibrated with buffer D (25 mM HEPES, pH 7.5, 20% glycerol, 300 mM NaCl, 0.2% Triton X-100, 10 mM βME). Sample was loaded at a flow rate of 1 mL/min. NS3/4A protease complex-containing fractions were pooled and concentrated to approximately 0.5 mg/ml. The purity of the NS3/4A protease complexes, derived from the BMS, H77 and J4L6S strains, were judged to be greater than 90% by SDS-PAGE and mass spectrometry analyses. The enzyme was stored at −80° C., thawed on ice and diluted prior to use in assay buffer.
The purpose of this in vitro assay was to measure the inhibition of HCV NS3 protease complexes, derived from the BMS strain, H77 strain or J4L6S strain, as described above, by compounds of the present disclosure. This assay provides an indication of how effective compounds of the present disclosure would be in inhibiting HCV NS3 proteolytic activity.
In order to monitor HCV NS3/4A protease activity, an NS3/4A peptide substrate was used. The substrate was RET S1 (Resonance Energy Transfer Depsipeptide Substrate; AnaSpec, Inc. cat #22991) (FRET peptide), described by Taliani et al. in Anal. Biochem. 240(2):60-67 (1996). The sequence of this peptide is loosely based on the NS4A/NS4B natural cleavage site for the HCV NS3 protease except there is an ester linkage rather than an amide bond at the cleavage site. The peptide also contains a fluorescence donor, EDANS, near one end of the peptide and an acceptor, DABCYL, near the other end. The fluorescence of the peptide is quenched by […] resonance energy transfer (RET) between the donor and the acceptor, but as the NS3 protease cleaves the peptide the products are released from RET quenching and the fluorescence of the donor becomes apparent.
The peptide substrate was incubated with one of the three recombinant NS3/4A protease complexes, in the absence or presence of a compound of the present disclosure. The inhibitory effects of a compound were determined by monitoring the formation of fluorescent reaction product in real time using a Cytofluor Series 4000.
Assay buffer: 50 mM HEPES, pH 7.5; 0.15M NaCl; 0.1% Triton; 15% Glycerol; 10 mM βME. Substrate: 2 μM final concentration (from a 2 mM stock solution in DMSO stored at −20° C.). HCV NS3/4A protease type 1a (1b), 2-3 nM final concentration (from a 5 μM stock solution in 25 mM HEPES, pH 7.5, 20% glycerol, 300 mM NaCl, 0.2% Triton-X100, 10 mM βME). […]

Assay [2] has as its target T2, porcine pancreatic elastase (PPE) (Sus scrofa, UniProt P00772).
T2 construct: purchased Sigma
Put plainly: Specificity assay, porcine pancreatic elastase. The format is biochemical. Conditions: 2 h enzyme-inhibitor pre-incubation; read-out: PPE activity in the specificity assays (IC50). As to the method:
The specificities of compounds of the present disclosure were determined against a variety of serine proteases: human neutrophil elastase (HNE), porcine pancreatic elastase (PPE) and human pancreatic chymotrypsin and one cysteine protease: human liver cathepsin B. In all cases a 96-well plate format protocol using calorimetric p-nitroaniline (pNA) substrate specific for each enzyme was used as described previously (PCT Patent Application No. WO 00/09543) with some modifications to the serine protease assays. All enzymes were purchased from Sigma while the substrates were from Bachem.
Each assay included a 2 h enzyme-inhibitor pre-incubation at room temperature followed by addition of substrate and hydrolysis to 30% conversion as measured on a Spectramax Pro microplate reader. Compound concentrations varied from 100 to 0.4 μM depending on their potency. […]
The percentage of inhibition was calculated using the formula: [1−((UVinh−UVblank)/(UVctl−UVblank))]×100 […]

T1 sequence (P27958 1027-1657, change not shown, one chain of several): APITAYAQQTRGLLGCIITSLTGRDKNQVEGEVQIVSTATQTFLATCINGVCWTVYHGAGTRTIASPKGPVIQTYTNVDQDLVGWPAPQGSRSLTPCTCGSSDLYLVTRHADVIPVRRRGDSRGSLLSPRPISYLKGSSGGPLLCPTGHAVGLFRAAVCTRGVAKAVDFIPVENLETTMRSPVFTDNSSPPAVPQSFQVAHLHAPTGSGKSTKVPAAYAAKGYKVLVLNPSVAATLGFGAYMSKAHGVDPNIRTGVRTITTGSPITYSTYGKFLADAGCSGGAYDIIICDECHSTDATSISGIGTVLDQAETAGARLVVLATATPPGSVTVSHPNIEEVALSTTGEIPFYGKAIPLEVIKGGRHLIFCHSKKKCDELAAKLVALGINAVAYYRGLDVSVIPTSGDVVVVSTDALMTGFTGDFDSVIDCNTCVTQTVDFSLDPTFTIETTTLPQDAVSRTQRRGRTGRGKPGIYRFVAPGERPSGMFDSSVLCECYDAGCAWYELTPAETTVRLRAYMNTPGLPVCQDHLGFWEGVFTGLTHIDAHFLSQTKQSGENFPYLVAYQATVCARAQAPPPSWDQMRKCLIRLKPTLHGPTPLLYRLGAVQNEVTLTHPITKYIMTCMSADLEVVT
T2 sequence (P00772 27-266): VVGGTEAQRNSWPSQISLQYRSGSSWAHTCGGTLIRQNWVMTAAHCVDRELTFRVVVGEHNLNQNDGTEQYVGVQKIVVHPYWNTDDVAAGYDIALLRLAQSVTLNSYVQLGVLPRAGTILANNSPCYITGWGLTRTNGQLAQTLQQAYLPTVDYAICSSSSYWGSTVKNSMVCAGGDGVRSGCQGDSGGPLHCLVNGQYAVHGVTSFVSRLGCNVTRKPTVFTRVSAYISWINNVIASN

For the compound `C=C[C@@H]1C[C@]1(NC(=O)[C@@H]1C[C@@](O)(c2ccc(-c3ccccc3)cc2)CN1C(=O)[C@@H](NC(=O)OC(C)(C)C)C(C)(C)C)C(=O)NS(=O)(=O)C1CC1` [Compound 3], the IC50 in assay [1] (BMS strain, read-out: IC50 against the NS3/4A BMS strain in the enzyme assay) is 4 nM; in assay [1] (NS3/4A BMS strain, read-out: Activity Range (IC50)), 1 to 100 nM; in assay [2] it was above 100000 nM.
